In PubChem BioAssay AID2060496 (Molecular Pharmacology Branch, DTP, NCI, 2025):

System: 276233-004-R-J1-PDC complex spheroid viability
Experiment: Anticancer human tumor 276233-004-R-J1-PDC patient-derived colon adenocarcinoma cell line growth inhibition [GQUAD]
Conditions: for IC50: curve of first compound; for viability, T/C: stronger effect = lower value
In short: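 Tumor cells were grown as complex spheroids with HUVEC endothelial cells and mesenchymal stem cells as stroma. G-quadruplex stabilizers were combined with targeted agents over half-log dilutions from near the clinical Cmax, or from 10 microM.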

[1] = second compound 0.0316 µM, first compound 0.0316 µM
[2] = second compound 0.0316 µM, first compound 0.1 µM
[3] = second compound 0.0316 µM, first compound 0.316 µM
[4] = second compound 0.0316 µM, first compound 1 µM
[5] = second compound 0.0316 µM, first compound 3.16 µM
[6] = second compound 0.0316 µM, first compound 10 µM
[7] = second compound 0.1 µM, first compound 0.0316 µM
[8] = second compound 0.1 µM, first compound 0.1 µM
[9] = second compound 0.1 µM, first compound 0.316 µM
[10] = second compound 0.1 µM, first compound 1 µM
[11] = second compound 0.1 µM, first compound 3.16 µM
[12] = second compound 0.1 µM, first compound 10 µM
[13] = second compound 0.316 µM, first compound 0.0316 µM
[14] = second compound 0.316 µM, first compound 0.1 µM
[15] = second compound 0.316 µM, first compound 0.316 µM
[16] = second compound 0.316 µM, first compound 1 µM
[17] = second compound 0.316 µM, first compound 3.16 µM
[18] = second compound 0.316 µM, first compound 10 µM
[19] = second compound 1 µM, first compound 0.0316 µM
[20] = second compound 1 µM, first compound 0.1 µM
[21] = second compound 1 µM, first compound 0.316 µM
[22] = second compound 1 µM, first compound 1 µM
[23] = second compound 1 µM, first compound 3.16 µM
[24] = second compound 1 µM, first compound 10 µM
[25] = second compound 3.16 µM, first compound 0.0316 µM
[26] = second compound 3.16 µM, first compound 0.1 µM
[27] = second compound 3.16 µM, first compound 0.316 µM
[28] = second compound 3.16 µM, first compound 1 µM
[29] = second compound 3.16 µM, first compound 3.16 µM
[30] = second compound 3.16 µM, first compound 10 µM
[31] = second compound 10 µM, first compound 0.0316 µM
[32] = second compound 10 µM, first compound 0.1 µM
[33] = second compound 10 µM, first compound 0.316 µM
[34] = second compound 10 µM, first compound 1 µM
[35] = second compound 10 µM, first compound 3.16 µM
[36] = second compound 10 µM, first compound 10 µM
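Also: spheroids exposed to drugs for seven days.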
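For viability, T/C in this document: 100% = DMSO vehicle control viability.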

Structure (SMILES): CC1COCCN1c1cc(-c2ccnn2C)c2ccnc(-c3ccn[nH]3)c2n1 (stereo unspecified) + Cc1cnc(CNC(=O)c2c(=O)c3ccc(N4CCCN(C)CC4)nc3n3c2sc2ccccc23)cn1
- IC50 (second compound 0.0316 µM): > 10000 nM
- IC50 (second compound 0.1 µM): > 10000 nM
- IC50 (second compound 0.316 µM): 3700 nM
- IC50 (second compound 1 µM): 4440 nM
- IC50 (second compound 3.16 µM): 3320 nM
- IC50 (second compound 10 µM): 1070 nM
- viability, T/C [1]: 99.5%
- viability, T/C [2]: 57.5%
- viability, T/C [3]: 78.7%
- viability, T/C [4]: 56%
- viability, T/C [5]: 63.2%
- viability, T/C [6]: 42.5%
- viability, T/C [7]: 79.6%
- viability, T/C [8]: 86.5%
- viability, T/C [9]: 63.2%
- viability, T/C [10]: 67.2%
- viability, T/C [11]: 56.6%
- viability, T/C [12]: 55.1%
- viability, T/C [13]: 73.1%
- viability, T/C [14]: 67.1%
- viability, T/C [15]: 65.9%
- viability, T/C [16]: 58.9%
- viability, T/C [17]: 51.3%
- viability, T/C [18]: 41.8%
- viability, T/C [19]: 68.9%
- viability, T/C [20]: 64.7%
- viability, T/C [21]: 67.4%
- viability, T/C [22]: 58.4%
- viability, T/C [23]: 52.3%
- viability, T/C [24]: 43.5%
- viability, T/C [25]: 63.1%
- viability, T/C [26]: 57.3%
- viability, T/C [27]: 62%
- viability, T/C [28]: 55.8%
- viability, T/C [29]: 49.7%
- viability, T/C [30]: 41.1%
- viability, T/C [31]: 53.4%
- viability, T/C [32]: 50.6%
- viability, T/C [33]: 51%
- viability, T/C [34]: 47.2%
- viability, T/C [35]: 49.2%
- viability, T/C [36]: 38.5%

Structure (SMILES): CC1COCCN1c1cc(C2(O)CC3CCC(C2)O3)c2cnn(-c3ccn[nH]3)c2n1 (stereo unspecified) + Cc1cnc(CNC(=O)c2c(=O)c3ccc(N4CCCN(C)CC4)nc3n3c2sc2ccccc23)cn1
- IC50 (second compound 0.0316 µM): 3100 nM
- IC50 (second compound 0.1 µM): 3560 nM
- IC50 (second compound 0.316 µM): 1470 nM
- IC50 (second compound 1 µM): 1020 nM
- IC50 (second compound 3.16 µM): 642 nM
- IC50 (second compound 10 µM): 271 nM
- viability, T/C [1]: 81%
- viability, T/C [2]: 61.9%
- viability, T/C [3]: 79.2%
- viability, T/C [4]: 50.7%
- viability, T/C [5]: 52.1%
- viability, T/C [6]: 40.3%
- viability, T/C [7]: 79.7%
- viability, T/C [8]: 80.7%
- viability, T/C [9]: 60.6%
- viability, T/C [10]: 63.5%
- viability, T/C [11]: 56.3%
- viability, T/C [12]: 35.8%
- viability, T/C [13]: 71.1%
- viability, T/C [14]: 85.3%
- viability, T/C [15]: 62.6%
- viability, T/C [16]: 50.6%
- viability, T/C [17]: 48.7%
- viability, T/C [18]: 32.9%
- viability, T/C [19]: 68.8%
- viability, T/C [20]: 75%
- viability, T/C [21]: 50.4%
- viability, T/C [22]: 50%
- viability, T/C [23]: 44.6%
- viability, T/C [24]: 24.9%
- viability, T/C [25]: 55.7%
- viability, T/C [26]: 59.7%
- viability, T/C [27]: 56.4%
- viability, T/C [28]: 44.8%
- viability, T/C [29]: 35.9%
- viability, T/C [30]: 24.6%
- viability, T/C [31]: 63.2%
- viability, T/C [32]: 60.1%
- viability, T/C [33]: 46.9%
- viability, T/C [34]: 41.7%
- viability, T/C [35]: 35.6%
- viability, T/C [36]: 20%

Structure (SMILES): CC[C@@]1(O)C(=O)OCc2c1cc1n(c2=O)Cc2cc3c(CN(C)C)c(O)ccc3nc2-1 + Cc1cnc(CNC(=O)c2c(=O)c3ccc(N4CCCN(C)CC4)nc3n3c2sc2ccccc23)cn1
- IC50 (second compound 0.0316 µM): > 316 nM
- IC50 (second compound 0.1 µM): > 316 nM
- IC50 (second compound 0.316 µM): > 316 nM
- IC50 (second compound 1 µM): > 316 nM
- IC50 (second compound 3.16 µM): > 316 nM
- IC50 (second compound 10 µM): > 316 nM
- viability, T/C (second compound 0.0316 µM, first compound 0.000999 µM): 88.1%
- viability, T/C (second compound 0.0316 µM, first compound 0.00316 µM): 94.5%
- viability, T/C (second compound 0.0316 µM, first compound 0.00999 µM): 87.9%
- viability, T/C [1]: 80%
- viability, T/C (second compound 0.0316 µM, first compound 0.0999 µM): 98.7%
- viability, T/C [3]: 82.5%
- viability, T/C (second compound 0.1 µM, first compound 0.000999 µM): 93.3%
- viability, T/C (second compound 0.1 µM, first compound 0.00316 µM): 101%
- viability, T/C (second compound 0.1 µM, first compound 0.00999 µM): 107%
- viability, T/C [7]: 83.7%
- viability, T/C (second compound 0.1 µM, first compound 0.0999 µM): 87%
- viability, T/C [9]: 76%
- viability, T/C (second compound 0.316 µM, first compound 0.000999 µM): 83.9%
- viability, T/C (second compound 0.316 µM, first compound 0.00316 µM): 90.8%
- viability, T/C (second compound 0.316 µM, first compound 0.00999 µM): 106%
- viability, T/C [13]: 84.4%
- viability, T/C (second compound 0.316 µM, first compound 0.0999 µM): 87.7%
- viability, T/C [15]: 92.7%
- viability, T/C (second compound 1 µM, first compound 0.000999 µM): 81%
- viability, T/C (second compound 1 µM, first compound 0.00316 µM): 93.9%
- viability, T/C (second compound 1 µM, first compound 0.00999 µM): 87.1%
- viability, T/C [19]: 80.5%
- viability, T/C (second compound 1 µM, first compound 0.0999 µM): 88.2%
- viability, T/C [21]: 107%
- viability, T/C (second compound 3.16 µM, first compound 0.000999 µM): 81.9%
- viability, T/C (second compound 3.16 µM, first compound 0.00316 µM): 84%
- viability, T/C (second compound 3.16 µM, first compound 0.00999 µM): 80.6%
- viability, T/C [25]: 87.2%
- viability, T/C (second compound 3.16 µM, first compound 0.0999 µM): 82.3%
- viability, T/C [27]: 80.8%
- viability, T/C (second compound 10 µM, first compound 0.000999 µM): 73.2%
- viability, T/C (second compound 10 µM, first compound 0.00316 µM): 67.9%
- viability, T/C (second compound 10 µM, first compound 0.00999 µM): 70.2%
- viability, T/C [31]: 83.6%
- viability, T/C (second compound 10 µM, first compound 0.0999 µM): 70%
- viability, T/C [33]: 89.6%
